The values that follow come from PubChem BioAssay (NCI).

Test systems include 786-0 renal; CAKI-1 renal; CCRF-CEM leukemia; DU-145 prostate; K-562 leukemia; KM12 colon; MALME-3M melanoma; NCI-H460 lung; NCI/ADR-RES ovarian; OVCAR-5 ovarian; PC-3 prostate; RXF 393 renal; SF-295 CNS; SF-539 CNS; SN12C renal; T-47D breast; U251 CNS; SK-MEL-2 melanoma; UO-31 renal.
Holding throughout (test): DTP human tumour cell line panel, 48 h

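Exposure lasted 48 hours, with cells grown in 96-well plates and compounds tested at five concentrations. TGI: total growth inhibition.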 Bounds are passed on as bounds.

Regarding `CC(=O)OCC1OC(n2c(-c3ccccc3)c(C(C)=O)c(-c3ccc(Cl)cc3)c(C#N)c2=S)C(OC(C)=O)C(OC(C)=O)C1OC(C)=O` (stereo not given), the TGI in the experiment on 786-0 renal, in the experiment with CAKI-1 renal, with CCRF-CEM leukemia, in the experiment on DU-145 prostate, with K-562 leukemia and with KM12 colon was > 100 µM in each case. In addition, the TGI is > 100 µM in the experiment with MALME-3M melanoma; > 100 µM with NCI-H460 lung; > 100 µM in the experiment with NCI/ADR-RES ovarian; > 100 µM with OVCAR-5 ovarian; 8.46 µM in the experiment on PC-3 prostate; > 100 µM with RXF 393 renal. Further, the TGI in the experiment with SF-295 CNS, in the experiment with SF-539 CNS, in the experiment with SN12C renal, with T-47D breast and in the experiment on U251 CNS was > 100 µM in each case.
Consider `CS/C1=C(\c2ccc(C)cc2)N(c2ccccc2)C(=O)C(=O)N(c2ccccc2)/C(c2ccc(C)cc2)=C(/SC)SS1`, for which the TGI in the experiment on 786-0 renal, in the experiment on CAKI-1 renal, in the experiment with CCRF-CEM leukemia, in the experiment with DU-145 prostate, in the experiment on K-562 leukemia and with MALME-3M melanoma was > 100 µM each time. For the same compound, the TGI in the experiment with NCI-H460 lung, in the experiment on NCI/ADR-RES ovarian, with OVCAR-5 ovarian, with PC-3 prostate, in the experiment on SF-295 CNS and in the experiment with SF-539 CNS was > 100 µM in each case. In addition, the TGI with SK-MEL-2 melanoma, in the experiment with SN12C renal, in the experiment with T-47D breast, in the experiment with U251 CNS and in the experiment on UO-31 renal was > 100 µM throughout.
For the compound `C=C(C)C1Cc2c(cc(O)c3c(=O)c4c(oc23)C(O)Oc2cc(OC)c(OC)cc2-4)O1` (stereo not given), the TGI in the experiment with 786-0 renal, in the experiment on CAKI-1 renal, with CCRF-CEM leukemia, in the experiment with DU-145 prostate, in the experiment on K-562 leukemia and with KM12 colon was > 10 µM in each case. The TGI in the experiment with MALME-3M melanoma, with NCI-H460 lung, with NCI/ADR-RES ovarian, in the experiment with OVCAR-5 ovarian, in the experiment on PC-3 prostate and in the experiment on RXF 393 renal was > 10 µM each time. Also, the TGI with SF-295 CNS, with SF-539 CNS, in the experiment on SN12C renal, in the experiment on T-47D breast, with U251 CNS and with UO-31 renal was > 10 µM throughout.
Take `O=C1SS(=O)c2ccccc21` (stereo not given): the TGI in the experiment on 786-0 renal, with CAKI-1 renal, in the experiment with CCRF-CEM leukemia, in the experiment with DU-145 prostate, with K-562 leukemia and in the experiment with KM12 colon was > 100 µM throughout. The TGI in the experiment on MALME-3M melanoma, in the experiment with NCI-H460 lung, in the experiment with NCI/ADR-RES ovarian, in the experiment with OVCAR-5 ovarian, in the experiment with PC-3 prostate and in the experiment with SF-295 CNS was > 100 µM each time. Besides, the TGI in the experiment with SF-539 CNS, with SK-MEL-2 melanoma, in the experiment with SN12C renal, with U251 CNS and in the experiment on UO-31 renal was > 100 µM throughout.
Take `CC(C)(C)c1cc(-c2cc(C(C)(C)C)n(-c3ccccc3)n2)nn1-c1ccccc1`: the TGI in the experiment on 786-0 renal, in the experiment with CAKI-1 renal, in the experiment on CCRF-CEM leukemia, in the experiment with DU-145 prostate, in the experiment with K-562 leukemia and with KM12 colon was > 100 µM throughout. Also, the TGI with NCI-H460 lung, in the experiment on NCI/ADR-RES ovarian, in the experiment on OVCAR-5 ovarian, in the experiment on PC-3 prostate, with RXF 393 renal and in the experiment on SF-295 CNS was > 100 µM throughout. Further, the TGI in the experiment with SF-539 CNS, in the experiment with SK-MEL-2 melanoma, in the experiment on SN12C renal, in the experiment on T-47D breast, with U251 CNS and in the experiment with UO-31 renal was > 100 µM each time.
In the case of `Nc1ccc2nc(Nc3ccc(F)cc3)cnc2c1`, the TGI in the experiment on 786-0 renal, with CAKI-1 renal, with CCRF-CEM leukemia, with K-562 leukemia, with KM12 colon and in the experiment with MALME-3M melanoma was > 100 µM throughout. Moreover, the TGI in the experiment with NCI-H460 lung, in the experiment on OVCAR-5 ovarian, in the experiment on SF-295 CNS, in the experiment with SF-539 CNS, in the experiment with SK-MEL-2 melanoma and in the experiment on SN12C renal was > 100 µM each time. Moreover, the TGI with UO-31 renal was > 100 µM.
`COc1cc(C2c3cc(O)c(OC)cc3C3OCC2C3CO)ccc1O` (stereo not given): the TGI with 786-0 renal, in the experiment on CAKI-1 renal, with DU-145 prostate, with K-562 leukemia, with KM12 colon and in the experiment on MALME-3M melanoma was > 100 µM in each case. Further, the TGI with NCI-H460 lung, with NCI/ADR-RES ovarian, in the experiment with OVCAR-5 ovarian, in the experiment on PC-3 prostate, in the experiment on RXF 393 renal and in the experiment with SF-295 CNS was > 100 µM throughout. Moreover, the TGI with SF-539 CNS, in the experiment on SK-MEL-2 melanoma, in the experiment with T-47D breast, in the experiment with U251 CNS and with UO-31 renal was > 100 µM each time.
Take `CSc1nc(Cl)c(Br)c(Sc2nc(N)nc3nc[nH]c23)n1`: the TGI in the experiment on 786-0 renal amounted to 15.2 µM; in the experiment on CAKI-1 renal, 10.2 µM; in the experiment with CCRF-CEM leukemia, 9.38 µM; in the experiment with K-562 leukemia it was 13.1 µM; in the experiment with KM12 colon, 19 µM; in the experiment with MALME-3M melanoma, 26.4 µM. Further, the TGI was 20.1 µM in the experiment on NCI-H460 lung; 24.1 µM with OVCAR-5 ovarian; 17.7 µM with SF-295 CNS; 11.2 µM with SF-539 CNS; 16.9 µM in the experiment with SK-MEL-2 melanoma; 16.4 µM with U251 CNS. In the experiment with UO-31 renal, this compound returned a TGI of 17 µM.
